Measurements taken from article PMC12140364, “Meisoindigo Acts as a Molecular Glue to Target PKMYT1 for Degradation in Chronic Myeloid Leukemia Therapy” (Advanced Science, 2025).

What was measured:
TRIM25 = target: T1, TRIM25 (Homo sapiens, UniProt Q14258); assay: MST; format: binding
T1 construct: recombinant TRIM25 (Origene, TP303757)

[1] = target: T2, PKMYT1 (protein kinase, membrane-associated tyrosine/threonine 1) (Homo sapiens, UniProt Q99640); assay: MST; LC-MS/MS adduct mapping; CETSA; C301A mutant abolishes binding
T2 construct: residues 75-362, N-terminal 6xHis, E. coli
T2 sequence (Q99640 75-362): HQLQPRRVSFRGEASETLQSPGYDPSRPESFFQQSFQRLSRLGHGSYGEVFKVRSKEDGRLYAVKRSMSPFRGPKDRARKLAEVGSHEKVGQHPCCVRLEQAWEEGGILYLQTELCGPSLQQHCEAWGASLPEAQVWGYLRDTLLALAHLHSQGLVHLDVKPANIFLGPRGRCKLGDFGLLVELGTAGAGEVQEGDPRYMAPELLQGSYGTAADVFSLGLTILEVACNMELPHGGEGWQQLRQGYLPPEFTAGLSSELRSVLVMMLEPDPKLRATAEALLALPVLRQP

PKMYT1 = target: T3, PKMYT1 (Homo sapiens, UniProt Q99640); assay: enzyme activity assay; format: biochemical
T3 sequence (Q99640 1-499): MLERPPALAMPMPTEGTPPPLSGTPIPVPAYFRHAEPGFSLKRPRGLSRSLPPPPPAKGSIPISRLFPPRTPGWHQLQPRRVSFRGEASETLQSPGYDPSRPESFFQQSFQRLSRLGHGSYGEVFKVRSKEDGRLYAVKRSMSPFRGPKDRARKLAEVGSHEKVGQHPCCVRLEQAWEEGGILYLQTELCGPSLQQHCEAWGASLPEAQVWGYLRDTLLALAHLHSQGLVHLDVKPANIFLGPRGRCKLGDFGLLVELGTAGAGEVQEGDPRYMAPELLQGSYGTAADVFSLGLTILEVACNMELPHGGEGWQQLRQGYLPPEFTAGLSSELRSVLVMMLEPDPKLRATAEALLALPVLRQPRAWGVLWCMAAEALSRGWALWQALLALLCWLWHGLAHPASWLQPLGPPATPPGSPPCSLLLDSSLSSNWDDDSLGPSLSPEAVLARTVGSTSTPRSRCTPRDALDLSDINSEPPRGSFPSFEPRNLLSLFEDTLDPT

[2] = target: T4, TRIM25 protein (Origene, TP303757) (UniProt Q14258 1-630); assay: MST; PKMYT1 (75-362) protein labelled with RED-NHS 2nd Generation, 40 nM, assay buffer with 0.05% Tween-20; TRIM25 in 2-fold dilution series; Monolith NT.115; without Mei; n = 3; details: both partners purified
T4 construct: TRIM25, E3 ubiquitin ligase; also called recombinant TRIM25; E3 ligase TRIM25; source: bought: Origene (TP303757)
T4 sequence (Q14258 whole entry): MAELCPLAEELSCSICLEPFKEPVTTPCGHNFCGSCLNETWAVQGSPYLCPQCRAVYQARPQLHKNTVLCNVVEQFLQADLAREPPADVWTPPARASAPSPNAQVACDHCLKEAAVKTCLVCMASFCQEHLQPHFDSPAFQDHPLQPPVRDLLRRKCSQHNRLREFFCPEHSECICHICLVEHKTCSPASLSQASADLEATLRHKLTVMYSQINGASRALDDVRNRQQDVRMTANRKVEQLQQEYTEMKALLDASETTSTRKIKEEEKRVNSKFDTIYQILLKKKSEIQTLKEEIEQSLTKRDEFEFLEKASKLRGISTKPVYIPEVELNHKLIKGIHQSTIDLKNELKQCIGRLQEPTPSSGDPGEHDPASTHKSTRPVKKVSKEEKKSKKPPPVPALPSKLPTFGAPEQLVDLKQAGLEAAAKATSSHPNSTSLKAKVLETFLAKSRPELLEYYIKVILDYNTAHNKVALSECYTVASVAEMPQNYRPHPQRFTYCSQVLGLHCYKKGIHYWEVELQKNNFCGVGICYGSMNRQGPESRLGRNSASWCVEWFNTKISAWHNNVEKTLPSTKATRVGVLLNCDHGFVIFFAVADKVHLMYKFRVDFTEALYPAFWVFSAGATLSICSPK

T1 sequence (Q14258 whole entry): as above

CN1C(=O)/C(=C2/C(=O)Nc3ccccc32)c2ccccc21 [Mei, Meisoindigo]
Kd (TRIM25): 220 ± 100 nM
Kd [1]: 2180 ± 960 nM

CCN(CC)CCOc1ccc(Nc2ncc3cc(-c4c(Cl)cccc4Cl)c(=O)n(C)c3n2)cc1 [PD0166285]
IC50 (PKMYT1): 16.4 nM

B1: recombinant PKMYT1 (75-362) (domain or fragment, human, UniProt Q99640 75-362, looked up)
chain: HQLQPRRVSFRGEASETLQSPGYDPSRPESFFQQSFQRLSRLGHGSYGEVFKVRSKEDGRLYAVKRSMSPFRGPKDRARKLAEVGSHEKVGQHPCCVRLEQAWEEGGILYLQTELCGPSLQQHCEAWGASLPEAQVWGYLRDTLLALAHLHSQGLVHLDVKPANIFLGPRGRCKLGDFGLLVELGTAGAGEVQEGDPRYMAPELLQGSYGTAADVFSLGLTILEVACNMELPHGGEGWQQLRQGYLPPEFTAGLSSELRSVLVMMLEPDPKLRATAEALLALPVLRQP
modifications: labelled with RED-NHS 2nd Generation dye for MST
notes: No cleavage of the His tag is described; also called protein kinase, membrane-associated tyrosine/threonine 1; source: E. coli BL21(DE3), purified (Ni-resin)
Kd [2]: 2940 nM
